{
  "source": "patent US4640910A",
  "about": "(Abbott Laboratories, priority 1985, dated 1987)",
  "key": {"Staph. aureus ATCC 6538P": {"tested_on": "Staph. aureus ATCC 6538P", "assay": "Antimicrobial spectrum, agar dilution MIC", "format": "cell-based", "conditions": "Staphylococcus aureus, ATCC6538P, BHI agar, 35°-37° C., 20-24 hours"}, "Staph. aureus CMX 686B": {"tested_on": "Staph. aureus CMX 686B", "assay": "Antimicrobial spectrum, agar dilution MIC", "format": "cell-based", "conditions": "Staphylococcus aureus, CMX686B, BHI agar, 35°-37° C., 20-24 hours"}, "Staph. aureus A 5177": {"tested_on": "Staph. aureus A 5177", "assay": "Antimicrobial spectrum, agar dilution MIC", "format": "cell-based", "conditions": "Staphylococcus aureus, A5177"}, "Staph. epidermidis 3519": {"tested_on": "Staph. epidermidis 3519", "assay": "Antimicrobial spectrum, agar dilution MIC", "format": "cell-based", "conditions": "Staphylococcus epidermidis, BHI agar, 35°-37° C., 20-24 hours"}, "[1]": {"tested_on": "Staph. epidermidis 3519 RARI", "assay": "Antimicrobial spectrum, agar dilution MIC", "format": "cell-based", "conditions": "Staphylococcus epidermidis"}, "Micrococcus luteus 9341": {"tested_on": "Micrococcus luteus 9341", "assay": "Antimicrobial spectrum, agar dilution MIC", "format": "cell-based", "conditions": "Micrococcus luteus 9341; BHI agar, 35°-37° C., 20-24 hours; read-out: MIC"}, "Micrococcus luteus 4698": {"tested_on": "Micrococcus luteus 4698", "assay": "Antimicrobial spectrum, agar dilution MIC", "format": "cell-based", "conditions": "BHI agar, 35°-37° C., 20-24 hours"}, "[2]": {"tested_on": "Lactobacillus casei ATCC 7469", "assay": "Antimicrobial spectrum, agar dilution MIC", "format": "cell-based", "conditions": "Lacticaseibacillus casei, ATCC7469; Lactobacillus casei ATCC 7469; BHI agar, 35°-37° C., 20-24 hours; read-out: MIC"}, "Strep. faecium ATCC 8043": {"tested_on": "Strep. faecium ATCC 8043", "assay": "Antimicrobial spectrum, agar dilution MIC", "format": "cell-based", "conditions": "Enterococcus faecium, ATCC8043, BHI agar, 35°-37° C., 20-24 hours"}, "Strep. bovis A5169": {"tested_on": "Strep. bovis A5169", "assay": "Antimicrobial spectrum, agar dilution MIC", "format": "cell-based", "conditions": "Streptococcus equinus, BHI agar, 35°-37° C., 20-24 hours"}, "[3]": {"tested_on": "Strep. agalactiae CMX 508", "assay": "Antimicrobial spectrum, agar dilution MIC", "format": "cell-based", "conditions": "Streptococcus agalactiae, CMX508, BHI agar, 35°-37° C., 20-24 hours"}, "Strep. pyogenes EES61": {"tested_on": "Strep. pyogenes EES61", "assay": "Antimicrobial spectrum, agar dilution MIC", "format": "cell-based", "conditions": "Streptococcus pyogenes, BHI agar, 35°-37° C., 20-24 hours"}, "Strep. pyogenes 930": {"tested_on": "Strep. pyogenes 930", "assay": "Antimicrobial spectrum, agar dilution MIC", "format": "cell-based", "conditions": "Streptococcus pyogenes, BHI agar, 35°-37° C., 20-24 hours"}, "E. coli JUHL": {"tested_on": "E. coli JUHL", "assay": "Antimicrobial spectrum, agar dilution MIC", "format": "cell-based", "conditions": "Escherichia coli, BHI agar, 35°-37° C., 20-24 hours"}, "E. coli SS": {"tested_on": "E. coli SS", "assay": "Antimicrobial spectrum, agar dilution MIC", "format": "cell-based", "conditions": "Escherichia coli, BHI agar, 35°-37° C., 20-24 hours"}, "E. coli DC-2": {"tested_on": "E. coli DC-2", "assay": "Antimicrobial spectrum, agar dilution MIC", "format": "cell-based", "conditions": "Escherichia coli, DC2, BHI agar, 35°-37° C., 20-24 hours"}, "E. coli H560": {"tested_on": "E. coli H560", "assay": "Antimicrobial spectrum, agar dilution MIC", "format": "cell-based", "conditions": "Escherichia coli, BHI agar, 35°-37° C., 20-24 hours"}, "[4]": {"tested_on": "Enterobact. aerogenes ATCC 13048", "assay": "Antimicrobial spectrum, agar dilution MIC", "format": "cell-based"}, "[5]": {"tested_on": "Klebsiella pneumoniae 8045", "assay": "Antimicrobial spectrum, agar dilution MIC", "format": "cell-based", "conditions": "BHI agar, 35°-37° C., 20-24 hours"}, "[6]": {"tested_on": "Providencia stuartii CMX 640", "assay": "Antimicrobial spectrum, agar dilution MIC", "format": "cell-based", "conditions": "Providencia stuartii, CMX640"}, "Ps. aeruginosa BMH10": {"tested_on": "Ps. aeruginosa BMH10", "assay": "Antimicrobial spectrum, agar dilution MIC", "format": "cell-based", "conditions": "Pseudomonas aeruginosa, BMH10"}, "Ps. aeruginosa A5007": {"tested_on": "Ps. aeruginosa A5007", "assay": "Antimicrobial spectrum, agar dilution MIC", "format": "cell-based", "conditions": "Pseudomonas aeruginosa, BHI agar, 35°-37° C., 20-24 hours"}, "Ps. aeruginosa K799/WT": {"tested_on": "Ps. aeruginosa K799/WT", "assay": "Antimicrobial spectrum, agar dilution MIC", "format": "cell-based", "conditions": "Pseudomonas aeruginosa, BHI agar, 35°-37° C., 20-24 hours"}, "Ps. aeruginosa K799/61": {"tested_on": "Ps. aeruginosa K799/61", "assay": "Antimicrobial spectrum, agar dilution MIC", "format": "cell-based", "conditions": "Pseudomonas aeruginosa, BHI agar, 35°-37° C., 20-24 hours"}, "Ps. cepacia 2961": {"tested_on": "Ps. cepacia 2961", "assay": "Antimicrobial spectrum, agar dilution MIC", "format": "cell-based", "conditions": "Burkholderia cepacia, 2961"}, "[7]": {"tested_on": "Acinetobacter sp. CMX 669", "assay": "Antimicrobial spectrum, agar dilution MIC", "format": "cell-based", "conditions": "SP.CMX669, BHI agar, 35°-37° C., 20-24 hours"}, "[8]": {"assay": "Stability and release of drug from prodrug in aqueous buffers pH 2 to 12 (dissolution apparatus, HPLC)", "format": "physicochemical", "conditions": "for conversion to active drug: 37° C.", "method": "(§1) Samples of 2'-trimethylsilylerythromycin A and 2'-trimethylsilyl-6-O-methylerythromycin A were dissolved in 10-50 ml dimethyl sulfoxide or acetonitrile to give a solution containing 15-75 mg/ml. An aliquot containing 75 mg of prodrug was added to aqueous buffers ranging in pH from 2 to 12 to give a final volume equal to 500 ml. The buffered mixtures were stirred at 37° C. for at least 90 minutes. A standard dissolution test apparatus (Vanderkamp 600, Van-Kel Industries, Inc., 36 Meridian Road, Edisoin, N.J. 08820) was used to provide temperature and stirring rate control.\n(§2) Aliquots were taken at 15, 30, 45, 60, 90, 120, 180, 240 and 360 minutes for analysis. Each sample was mixed with an internal standard, adjusted rapidly to pH 9 with 1M tricine buffer and extracted immediately with ethyl acetate. The organic extracts were evaporated and redissolved in a solution of 3% tetrahydrofuran in heptane. Samples of these solutions were injected using an autosampler (WISP 71)B, Waters Chromatography, Division of Millipore, 34 Maple Street, Milford, Mass. 01757). The prodrugs and drugs were separated by high performance liquid chromatography, detected at 225 nm using a spectrophotometer (Spectroflow 773 Absorbence Detector, Kratos Analytical Instruments), and were quantified with a digital integrator."}, "[9]": {"assay": "Solubility of prodrug in aqueous buffers", "format": "physicochemical", "method": "as §1, §2"}, "Strep. pyogenes": {"tested_on": "Strep. pyogenes", "assay": "Extended mouse protection study", "conditions": "oral"}, "Staph. aureus": {"tested_on": "Staph. aureus", "assay": "Extended mouse protection study", "conditions": "oral"}, "Strep. pneumoniae": {"tested_on": "Strep. pneumoniae", "assay": "Extended mouse protection study", "conditions": "oral"}, "[10]": {"conditions": "carboxymethylcellulose with milk (reduces gastric acid secretion)"}, "[11]": {"conditions": "phosphate buffer solution with milk (reduces gastric acid secretion)"}},
  "note": "Like-named read-outs stand apart in the source and are kept apart here.",
  "data": [
    {"smiles": "CC[C@H]1OC(=O)[C@H](C)[C@@H](O[C@H]2C[C@@](C)(OC)[C@@H](O)[C@H](C)O2)[C@H](C)[C@@H](O[C@@H]2O[C@H](C)C[C@H](N(C)C)[C@H]2O[Si](C)(C)C)[C@](C)(OC)C[C@@H](C)C(=O)[C@H](C)[C@@H](O)[C@]1(C)O", "note": "[Example 3, 2'-O-trimethylsilyl-6-O-methyl-Erythromycin A]", "values": [
      {"measurement": "MIC", "setting": "Staph. aureus ATCC 6538P", "value": 0.78, "unit": "µg/mL"},
      {"measurement": "MIC", "setting": "Staph. aureus CMX 686B", "value": 0.78, "unit": "µg/mL"},
      {"measurement": "MIC", "setting": "Staph. aureus A 5177", "value": 3.1, "unit": "µg/mL"},
      {"measurement": "MIC", "setting": "Staph. epidermidis 3519", "value": 0.78, "unit": "µg/mL"},
      {"measurement": "MIC", "setting": "[1]", "value": 0.39, "unit": "µg/mL"},
      {"measurement": "MIC", "setting": "Micrococcus luteus 9341", "value": 0.1, "unit": "µg/mL"},
      {"measurement": "MIC", "setting": "Micrococcus luteus 4698", "value": 0.39, "unit": "µg/mL"},
      {"measurement": "MIC", "setting": "[2]", "value": 0.1, "unit": "µg/mL"},
      {"measurement": "MIC", "setting": "Strep. faecium ATCC 8043", "value": 0.2, "unit": "µg/mL"},
      {"measurement": "MIC", "setting": "Strep. bovis A5169", "value": 0.1, "unit": "µg/mL"},
      {"measurement": "MIC", "setting": "[3]", "value": 0.1, "unit": "µg/mL"},
      {"measurement": "MIC", "setting": "Strep. pyogenes EES61", "value": 0.05, "unit": "µg/mL"},
      {"measurement": "MIC", "setting": "Strep. pyogenes 930", "value": 100, "unit": "µg/mL"},
      {"measurement": "MIC", "setting": "E. coli JUHL", "value": 100, "unit": "µg/mL"},
      {"measurement": "MIC", "setting": "E. coli SS", "value": 0.39, "unit": "µg/mL"},
      {"measurement": "MIC", "setting": "E. coli DC-2", "value": 100, "unit": "µg/mL"},
      {"measurement": "MIC", "setting": "E. coli H560", "value": 100, "unit": "µg/mL"},
      {"measurement": "MIC", "setting": "[4]", "value": 100, "unit": "µg/mL"},
      {"measurement": "MIC", "setting": "[5]", "value": 100, "unit": "µg/mL"},
      {"measurement": "MIC", "setting": "[6]", "value": 100, "unit": "µg/mL"},
      {"measurement": "MIC", "setting": "Ps. aeruginosa BMH10", "value": 100, "unit": "µg/mL"},
      {"measurement": "MIC", "setting": "Ps. aeruginosa A5007", "value": 100, "unit": "µg/mL"},
      {"measurement": "MIC", "setting": "Ps. aeruginosa K799/WT", "value": 100, "unit": "µg/mL"},
      {"measurement": "MIC", "setting": "Ps. aeruginosa K799/61", "value": 25, "unit": "µg/mL"},
      {"measurement": "MIC", "setting": "Ps. cepacia 2961", "value": 100, "unit": "µg/mL"},
      {"measurement": "MIC", "setting": "[7]", "value": 50, "unit": "µg/mL"},
      {"measurement": "conversion to active drug", "setting": "[8]; acid pH", "value": "converted to the active drug 6-O-methylerythromycin A"},
      {"measurement": "release rates", "setting": "[8]; pH 3 and 4, 37° C.", "value": "both dissolution-rate limited release and also release from the initially dissolved material"},
      {"measurement": "release rates", "setting": "[8]; pH 5, 6 and 7, 37° C.", "value": "dissolution-rate limited release"},
      {"measurement": "decomposition", "setting": "[8]; pH 7, owing to solubility properties", "value": "severely restrict its decomposition"},
      {"measurement": "conversion to active drug", "setting": "[8]; pH 8 or above", "value": "Very little or no conversion"},
      {"measurement": "solubility", "setting": "[9]; aqueous buffer, pH 2, completely soluble, read-out: solubility", "value": "≥ 150", "unit": "µg/mL"},
      {"measurement": "solubility", "setting": "[9]; neutral or alkaline pH", "value": "little or no solubility"},
      {"measurement": "ED50", "setting": "Strep. pyogenes; [10]", "value": 7.8, "unit": "mg/kg/day"},
      {"measurement": "ED50", "setting": "Strep. pyogenes; phosphate buffer solution", "value": 12.7, "unit": "mg/kg/day"},
      {"measurement": "ED50", "setting": "Strep. pyogenes; [11]", "value": 14.1, "unit": "mg/kg/day"},
      {"measurement": "ED50", "setting": "Staph. aureus; carboxymethylcellulose", "value": 34.9, "unit": "mg/kg/day"},
      {"measurement": "ED50", "setting": "Staph. aureus; phosphate buffer solution", "value": 157.9, "unit": "mg/kg/day"},
      {"measurement": "ED50", "setting": "Strep. pneumoniae; carboxymethylcellulose", "value": 7.9, "unit": "mg/kg/day"},
      {"measurement": "ED50", "setting": "Strep. pneumoniae; [10]", "value": 7.3, "unit": "mg/kg/day"},
      {"measurement": "ED50", "setting": "Strep. pneumoniae; phosphate buffer solution", "value": 9.3, "unit": "mg/kg/day"},
      {"measurement": "ED50", "setting": "Strep. pneumoniae; [11]", "value": 10.9, "unit": "mg/kg/day"}
    ]}
  ]
}
